According to ChEMBL document CHEMBL4507269, “Data for DCP probe BAY-386” (2021):
The source made the active and inactive calls.

Experiments:
[1] = biological target: Estrogen receptor (Homo sapiens) (UniProt P03372); conditions: Compound concentration 10.0 uM
Platelet [2] = assay: Inhibition of platelet aggregation (human plasma, TRAP-6) (IC90)
[3] = biological target: Cysteinyl leukotriene receptor 1 (Homo sapiens) (UniProt Q9Y271); assay: Inhibition of Leukotriene, Cysteinyl CysLT1 at 10 µM in the Eurofins-Panlabs radioligand binding assay (Eurofins_assay_250460); set-up: ligand concentration 0.3 nM, non-specific ligand with concentration 0.3 µM Leukotriene D4, incubation time 30 min, incubation temperature 25 °C; conditions: Compound concentration 10.0 uM
Chain of Cysteinyl leukotriene receptor 1 (Homo sapiens) (Q9Y271 whole entry): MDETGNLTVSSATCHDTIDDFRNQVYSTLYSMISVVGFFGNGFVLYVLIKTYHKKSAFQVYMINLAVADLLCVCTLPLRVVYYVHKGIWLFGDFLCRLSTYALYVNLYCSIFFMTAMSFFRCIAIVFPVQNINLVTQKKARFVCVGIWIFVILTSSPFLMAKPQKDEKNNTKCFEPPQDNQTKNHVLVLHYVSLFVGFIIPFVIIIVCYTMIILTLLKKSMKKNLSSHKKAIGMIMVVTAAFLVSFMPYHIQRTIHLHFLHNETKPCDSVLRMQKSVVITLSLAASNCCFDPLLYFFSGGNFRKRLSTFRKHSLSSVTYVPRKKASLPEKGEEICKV

[4] = biological target: Sodium-dependent dopamine transporter (Homo sapiens) (UniProt Q01959); conditions: Compound concentration 10.0 uM
Chain of Sodium-dependent dopamine transporter (Homo sapiens) (Q01959 whole entry): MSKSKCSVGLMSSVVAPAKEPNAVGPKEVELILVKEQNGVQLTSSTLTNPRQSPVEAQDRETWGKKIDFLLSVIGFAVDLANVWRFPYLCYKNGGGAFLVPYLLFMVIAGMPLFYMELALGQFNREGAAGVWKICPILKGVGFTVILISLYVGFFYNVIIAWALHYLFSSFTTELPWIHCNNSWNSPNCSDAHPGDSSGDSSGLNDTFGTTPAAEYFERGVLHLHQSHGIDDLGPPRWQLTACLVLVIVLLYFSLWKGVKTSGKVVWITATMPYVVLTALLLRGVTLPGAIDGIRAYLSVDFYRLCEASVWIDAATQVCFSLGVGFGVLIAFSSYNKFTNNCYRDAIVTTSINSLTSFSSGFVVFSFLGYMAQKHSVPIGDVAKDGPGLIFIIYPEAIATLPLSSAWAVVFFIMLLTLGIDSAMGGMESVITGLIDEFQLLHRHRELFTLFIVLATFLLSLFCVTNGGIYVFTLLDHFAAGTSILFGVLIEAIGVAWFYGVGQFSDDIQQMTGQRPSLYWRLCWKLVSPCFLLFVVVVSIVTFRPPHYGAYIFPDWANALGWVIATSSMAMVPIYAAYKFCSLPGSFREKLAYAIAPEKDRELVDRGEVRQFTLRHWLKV

[5] = biological target: Prostaglandin E2 receptor EP4 subtype (Homo sapiens) (UniProt P35408); assay: Inhibition of Prostanoid EP4 at 10 µM in the Eurofins-Panlabs radioligand binding assay (Eurofins_assay_268420); set-up: ligand concentration 1 nM; conditions: Compound concentration 10.0 uM
Chain of Prostaglandin E2 receptor EP4 subtype (Homo sapiens) (P35408 whole entry): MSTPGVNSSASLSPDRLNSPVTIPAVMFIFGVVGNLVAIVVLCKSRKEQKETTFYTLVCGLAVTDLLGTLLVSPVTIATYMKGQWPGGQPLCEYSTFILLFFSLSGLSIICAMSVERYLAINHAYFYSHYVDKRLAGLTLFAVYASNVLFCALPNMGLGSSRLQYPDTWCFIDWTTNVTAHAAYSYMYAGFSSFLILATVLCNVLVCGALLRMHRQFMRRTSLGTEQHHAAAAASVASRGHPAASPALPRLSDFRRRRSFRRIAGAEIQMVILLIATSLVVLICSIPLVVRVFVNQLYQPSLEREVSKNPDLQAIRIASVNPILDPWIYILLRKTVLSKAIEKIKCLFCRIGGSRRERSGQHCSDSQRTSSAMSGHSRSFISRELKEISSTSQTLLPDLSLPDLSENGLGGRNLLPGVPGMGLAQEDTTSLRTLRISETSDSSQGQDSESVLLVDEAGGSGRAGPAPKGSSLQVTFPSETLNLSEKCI

[6] = biological target: T1, Alpha-2A adrenergic receptor (Homo sapiens) (UniProt P08913); assay: Adrenergic alpha2A Eurofins-Panlabs radioligand binding assay; set-up: ligand concentration 1 nM, non-specific ligand with concentration 10 µM WB-4101, incubation time 60 min, incubation temperature 25 °C; conditions: Compound concentration 10.0 uM
T1 sequence (whole entry): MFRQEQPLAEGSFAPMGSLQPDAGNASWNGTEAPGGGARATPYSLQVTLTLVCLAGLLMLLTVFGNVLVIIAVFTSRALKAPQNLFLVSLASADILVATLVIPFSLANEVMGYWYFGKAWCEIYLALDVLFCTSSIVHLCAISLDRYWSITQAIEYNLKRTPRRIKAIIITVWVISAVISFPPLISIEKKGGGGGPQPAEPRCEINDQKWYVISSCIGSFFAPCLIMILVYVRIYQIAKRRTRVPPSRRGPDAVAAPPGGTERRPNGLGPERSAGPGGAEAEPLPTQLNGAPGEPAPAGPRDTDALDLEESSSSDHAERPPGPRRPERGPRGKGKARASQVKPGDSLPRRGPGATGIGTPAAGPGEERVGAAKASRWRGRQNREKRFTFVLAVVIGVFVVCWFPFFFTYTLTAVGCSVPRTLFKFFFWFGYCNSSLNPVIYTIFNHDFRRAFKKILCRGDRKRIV

[7] = biological target: D(1A) dopamine receptor (Homo sapiens) (UniProt P21728); conditions: Compound concentration 10.0 uM
[8] = biological target: Endothelin-1 receptor (Homo sapiens) (UniProt P25101); conditions: Compound concentration 10.0 uM
[9] = biological target: B2 bradykinin receptor (Homo sapiens) (UniProt P30411); assay: Bradykinin B2 Eurofins-Panlabs radioligand binding assay; conditions: Compound concentration 10.0 uM
[10] = biological target: voltage-gated sodium channel, site 2 (Rattus norvegicus, UniProt F1LQQ7+O08562+O88420+O88457+P04774+P04775+P08104+P15389+P15390+Q62968); assay: Inhibition of Sodium Channel, Site 2 at 10 µM in the Eurofins-Panlabs radioligand binding assay (Eurofins_assay_279510); type: protein assay; set-up: ligand concentration 5 nM, non-specific ligand with concentration 100 µM Veratridine, incubation time 60 min, incubation temperature 37 °C; conditions: male, Wistar, rat whole brain (except cerebellum) membranes, probe [3H] Batrachotoxinin, compound concentration 10 uM
[11] = biological target: Histamine H2 receptor (Homo sapiens) (UniProt P25021); conditions: Compound concentration 10.0 uM
Chain of Histamine H2 receptor (Homo sapiens) (P25021 whole entry): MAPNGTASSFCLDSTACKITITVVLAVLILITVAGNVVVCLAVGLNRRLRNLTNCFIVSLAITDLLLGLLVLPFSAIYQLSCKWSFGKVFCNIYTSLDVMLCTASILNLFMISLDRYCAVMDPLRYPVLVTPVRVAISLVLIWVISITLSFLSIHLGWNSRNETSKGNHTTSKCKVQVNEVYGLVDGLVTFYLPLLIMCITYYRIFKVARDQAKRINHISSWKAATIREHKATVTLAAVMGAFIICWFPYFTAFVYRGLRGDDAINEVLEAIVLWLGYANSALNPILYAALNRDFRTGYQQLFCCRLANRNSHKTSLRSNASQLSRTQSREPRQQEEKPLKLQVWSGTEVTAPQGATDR

[12] = biological target: Glutamate NMDA receptor (Rattus norvegicus) (UniProt P35439+Q00959+Q00960+Q00961+Q62645+Q8VHN2+Q9R1M7); conditions: Compound concentration 10.0 uM
[13] = biological target: B1 bradykinin receptor (Homo sapiens) (UniProt P46663); assay: Inhibition of Bradykinin B1 at 10 µM in the Eurofins-Panlabs radioligand binding assay (Eurofins_assay_212510); conditions: Compound concentration 10.0 uM
Chain of B1 bradykinin receptor (Homo sapiens) (P46663 whole entry): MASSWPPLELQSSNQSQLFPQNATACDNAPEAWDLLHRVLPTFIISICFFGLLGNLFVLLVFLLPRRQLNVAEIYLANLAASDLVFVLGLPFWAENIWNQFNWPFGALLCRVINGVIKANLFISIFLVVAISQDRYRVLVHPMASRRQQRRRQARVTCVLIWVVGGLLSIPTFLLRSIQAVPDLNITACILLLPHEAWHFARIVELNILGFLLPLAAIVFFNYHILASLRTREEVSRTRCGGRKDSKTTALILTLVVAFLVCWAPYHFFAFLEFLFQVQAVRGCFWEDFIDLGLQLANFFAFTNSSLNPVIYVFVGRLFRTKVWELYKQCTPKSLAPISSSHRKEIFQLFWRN

[14] = biological target: 5-hydroxytryptamine receptor 5A (Homo sapiens) (UniProt P47898); conditions: Compound concentration 10.0 uM
Chain of 5-hydroxytryptamine receptor 5A (Homo sapiens) (P47898 whole entry): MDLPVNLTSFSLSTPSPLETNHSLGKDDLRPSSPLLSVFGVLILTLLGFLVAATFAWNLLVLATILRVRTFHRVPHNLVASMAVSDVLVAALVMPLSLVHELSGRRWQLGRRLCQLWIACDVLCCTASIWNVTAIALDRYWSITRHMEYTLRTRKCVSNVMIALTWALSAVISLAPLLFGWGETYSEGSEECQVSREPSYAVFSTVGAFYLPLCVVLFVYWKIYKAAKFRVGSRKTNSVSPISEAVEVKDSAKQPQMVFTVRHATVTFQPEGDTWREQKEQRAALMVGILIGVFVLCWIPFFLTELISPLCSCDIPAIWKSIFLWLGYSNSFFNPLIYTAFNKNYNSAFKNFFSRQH

[15] = biological target: D(3) dopamine receptor (Homo sapiens) (UniProt P35462); conditions: Compound concentration 10.0 uM
[16] = biological target: Mu-type opioid receptor (Homo sapiens) (UniProt P35372); conditions: Compound concentration 10.0 uM
Chain of Mu-type opioid receptor (Homo sapiens) (P35372 whole entry): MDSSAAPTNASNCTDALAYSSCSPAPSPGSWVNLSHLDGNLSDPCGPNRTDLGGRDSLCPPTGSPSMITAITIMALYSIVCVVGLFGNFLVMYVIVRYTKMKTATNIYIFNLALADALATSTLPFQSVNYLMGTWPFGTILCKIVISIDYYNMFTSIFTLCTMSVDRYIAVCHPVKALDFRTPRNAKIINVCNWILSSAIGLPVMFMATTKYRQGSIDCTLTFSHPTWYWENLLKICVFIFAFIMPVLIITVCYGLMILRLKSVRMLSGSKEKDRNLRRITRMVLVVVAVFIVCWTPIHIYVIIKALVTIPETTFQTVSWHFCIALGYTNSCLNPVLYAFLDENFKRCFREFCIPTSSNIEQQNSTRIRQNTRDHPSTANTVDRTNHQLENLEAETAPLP

[17] = biological target: Adenosine receptor A1 (Homo sapiens) (UniProt P30542); conditions: Compound concentration 10.0 uM
Chain of Adenosine receptor A1 (Homo sapiens) (P30542 whole entry): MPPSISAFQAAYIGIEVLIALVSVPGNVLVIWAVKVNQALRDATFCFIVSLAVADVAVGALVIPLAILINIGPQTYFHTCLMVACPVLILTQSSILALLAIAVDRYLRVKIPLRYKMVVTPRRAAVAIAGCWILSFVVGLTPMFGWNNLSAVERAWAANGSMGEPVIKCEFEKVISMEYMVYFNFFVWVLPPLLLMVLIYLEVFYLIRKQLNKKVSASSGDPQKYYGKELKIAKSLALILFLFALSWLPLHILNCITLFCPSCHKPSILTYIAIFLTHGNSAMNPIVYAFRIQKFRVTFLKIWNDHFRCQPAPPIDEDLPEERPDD

[18] = biological target: Sigma non-opioid intracellular receptor 1 (Homo sapiens) (UniProt Q99720); conditions: Compound concentration 10.0 uM
[19] = biological target: Neuropeptide Y receptor type 2 (Homo sapiens) (UniProt P49146); assay: Inhibition of Neuropeptide Y Y2 at 10 µM in the Eurofins-Panlabs radioligand binding assay (Eurofins_assay_257110); conditions: Compound concentration 10.0 uM
Chain of Neuropeptide Y receptor type 2 (Homo sapiens) (P49146 whole entry): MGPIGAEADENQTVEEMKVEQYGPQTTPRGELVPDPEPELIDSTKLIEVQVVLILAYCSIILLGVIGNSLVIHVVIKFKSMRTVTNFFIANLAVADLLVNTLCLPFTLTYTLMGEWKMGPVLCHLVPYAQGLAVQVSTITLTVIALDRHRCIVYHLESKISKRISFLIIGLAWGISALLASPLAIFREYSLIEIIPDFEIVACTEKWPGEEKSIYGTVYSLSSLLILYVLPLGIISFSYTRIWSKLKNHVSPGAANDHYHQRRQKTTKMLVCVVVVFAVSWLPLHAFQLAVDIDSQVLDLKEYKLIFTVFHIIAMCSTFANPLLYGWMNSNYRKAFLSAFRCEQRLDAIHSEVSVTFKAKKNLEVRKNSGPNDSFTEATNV

Rattus norvegicus = organism: Rattus norvegicus; assay: Inhibition of Rolipram at 10 µM in the Eurofins-Panlabs radioligand binding assay (Eurofins_assay_268811); type: protein assay; set-up: ligand concentration 1.8 nM; conditions: Compound concentration 10.0 uM
[20] = biological target: Gamma-aminobutyric acid type B receptor subunit 1 (Homo sapiens) (UniProt Q9UBS5); assay: Inhibition of GABAB1A at compound concentration of 10.0 uM in the Eurofins-Panlabs radioligand binding assay (Eurofins_assay_228610); set-up: ligand concentration 4 nM; conditions: Compound concentration 10.0 uM
Chain of Gamma-aminobutyric acid type B receptor subunit 1 (Homo sapiens) (Q9UBS5 whole entry): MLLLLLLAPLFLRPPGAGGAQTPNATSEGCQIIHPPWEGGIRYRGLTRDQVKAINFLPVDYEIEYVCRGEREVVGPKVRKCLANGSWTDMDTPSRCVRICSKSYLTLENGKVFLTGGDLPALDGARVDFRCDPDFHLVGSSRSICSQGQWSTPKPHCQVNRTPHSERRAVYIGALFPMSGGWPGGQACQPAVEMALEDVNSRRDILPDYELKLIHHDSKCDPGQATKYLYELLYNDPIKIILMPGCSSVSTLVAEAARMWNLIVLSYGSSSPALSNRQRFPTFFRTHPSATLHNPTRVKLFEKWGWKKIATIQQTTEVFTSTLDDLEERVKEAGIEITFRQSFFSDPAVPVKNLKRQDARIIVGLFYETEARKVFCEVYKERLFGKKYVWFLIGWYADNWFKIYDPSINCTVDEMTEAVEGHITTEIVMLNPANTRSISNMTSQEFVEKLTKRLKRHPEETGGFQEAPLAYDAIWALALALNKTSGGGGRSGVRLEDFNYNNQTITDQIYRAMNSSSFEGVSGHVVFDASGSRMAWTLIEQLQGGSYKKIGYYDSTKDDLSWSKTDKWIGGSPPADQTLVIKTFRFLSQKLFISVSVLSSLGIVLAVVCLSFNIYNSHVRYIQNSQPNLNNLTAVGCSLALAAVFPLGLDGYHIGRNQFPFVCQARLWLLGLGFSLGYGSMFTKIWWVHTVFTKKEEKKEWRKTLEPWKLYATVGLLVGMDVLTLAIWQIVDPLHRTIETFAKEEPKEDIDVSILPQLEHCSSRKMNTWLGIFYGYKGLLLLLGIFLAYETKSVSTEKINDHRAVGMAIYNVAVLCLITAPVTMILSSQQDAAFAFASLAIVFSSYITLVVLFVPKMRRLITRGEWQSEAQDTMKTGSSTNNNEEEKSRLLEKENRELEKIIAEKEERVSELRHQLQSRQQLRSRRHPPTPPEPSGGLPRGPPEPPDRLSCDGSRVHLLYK

[21] = biological target: GABA-A receptor; anion channel (Rattus norvegicus) (UniProt O09028+P15431+P18506+P18508+P19969+P20236+P23574+P23576+P28471+P28473+P30191+P62813+P63079+P63138+Q91ZM7+Q9ES14); assay: Inhibition of GABAA, Muscimol, Central at 10 µM in the Eurofins-Panlabs radioligand binding assay (Eurofins_assay_226500); type: protein-complex assay; conditions: Compound concentration 10.0 uM
Platelet [22] = assay: Inhibition of platelet aggregation (human plasma, TRAP-6) (IC50); type: cell-based
[23] = biological target: T2, Proteinase-activated receptor 1 (Homo sapiens, UniProt P25116); assay: Binding assay (platelet membranes)
T2 sequence (P25116 whole entry): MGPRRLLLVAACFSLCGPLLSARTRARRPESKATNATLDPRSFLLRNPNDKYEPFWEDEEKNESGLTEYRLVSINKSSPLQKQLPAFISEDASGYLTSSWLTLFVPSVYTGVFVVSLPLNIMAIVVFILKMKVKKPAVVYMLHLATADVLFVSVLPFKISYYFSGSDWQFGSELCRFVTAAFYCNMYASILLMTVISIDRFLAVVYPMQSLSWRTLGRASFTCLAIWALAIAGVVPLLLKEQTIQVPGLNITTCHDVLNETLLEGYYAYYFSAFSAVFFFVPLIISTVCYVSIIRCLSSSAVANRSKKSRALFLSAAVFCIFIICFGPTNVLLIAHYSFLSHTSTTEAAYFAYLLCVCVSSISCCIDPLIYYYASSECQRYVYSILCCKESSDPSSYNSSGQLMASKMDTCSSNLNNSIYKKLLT

Mus musculus = organism: Mus musculus; assay: Inhibition of Interleukin IL-1 at 10 µM in the Eurofins-Panlabs radioligand binding assay (Eurofins_assay_243520); set-up: ligand concentration 0.1 nM; conditions: Compound concentration 10.0 uM
[24] = biological target: Kappa-type opioid receptor (Homo sapiens) (UniProt P41145); assay: kappa (KOP) (h) Eurofins-Cerep Cellular and Nuclear Receptor Functional Assays; conditions: Compound concentration 10.0 uM
Chain of Kappa-type opioid receptor (Homo sapiens) (P41145 whole entry): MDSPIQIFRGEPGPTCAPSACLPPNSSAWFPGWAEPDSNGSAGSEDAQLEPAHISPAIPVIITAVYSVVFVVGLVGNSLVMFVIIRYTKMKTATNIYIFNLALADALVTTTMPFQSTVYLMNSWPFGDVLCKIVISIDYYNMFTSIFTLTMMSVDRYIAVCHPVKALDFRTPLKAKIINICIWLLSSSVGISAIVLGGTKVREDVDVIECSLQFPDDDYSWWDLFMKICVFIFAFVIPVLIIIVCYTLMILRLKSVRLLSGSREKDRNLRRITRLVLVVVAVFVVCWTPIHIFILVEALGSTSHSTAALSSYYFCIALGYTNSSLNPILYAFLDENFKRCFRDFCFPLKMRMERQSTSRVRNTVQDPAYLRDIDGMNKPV

O=C(N1CCS(=O)(=O)CC1)N1C[C@H](c2ccc(OC(F)(F)F)cc2)C[C@H](c2nc(C3CC3)no2)C1 [BAY-386]
680 nM: IC90 (Platelet [2])
inactive: inhibition [1] -1% | inhibition [3] 1% | inhibition [4] 10% | inhibition [5] 1% | inhibition [6] 8% | inhibition [7] 4% | inhibition [8] 2% | inhibition [9] 11% | inhibition [11] -3% | inhibition [12] 12% | inhibition [13] 6% | inhibition [14] 10% | inhibition [15] -1% | inhibition [16] 6% | inhibition [17] -6% | inhibition [18] 40.3% | inhibition [19] 2% | inhibition (Rattus norvegicus) 3% | inhibition [20] 10% | inhibition [21] 10% | inhibition (Mus musculus) 16%
active: IC50 [23] 56 nM
55%: inhibition at 60 min, 10 µM [10]
430 nM: IC50 (Platelet [22])

Cc1noc([C@H]2C[C@@H](c3ccc(C(F)(F)F)cc3)CN(C(=O)N3CCS(=O)(=O)C3)C2)n1 [BAY-448]
1.3%: % Inhibition of Control Agonist Response (Mean n=2) [24]
9%: % of Control Agonist Response (Mean n=2) [24]
